Experimental data published in patent publication US11191273B2, “Methods of making pyranopyrans such as pyranopyran nitrile and methods of using pyranopyrans such as pyranopyran nitrile” (The United States of America, as Represented by the …, priority 2018, dated 2021).
Values after ≈ are worked out from the molar mass of the structure shown. Values joined by “and” are separate entries in the source; they are usually repeats but may differ in a detail not shown here. Equal entries are not always repeated. Where two headings read alike, the source gives them in different places.

What was measured:
[1] = test system: Flavobacterium columnare ALM-00-173; assay: rapid 96-well microplate antibacterial bioassay against F. columnare; format: cell-based; details: F. columnare ALM-00-173; for MIC (minimum inhibitory concentration) / MIC: 24 h; for MIC RDCF (relative-to-drug-control florfenicol): MIC divided by MIC of florfenicol; for IC50 / MIC: Flavobacterium columnare; for IC50: ALM00173, 24 h; for MIC: ALM00173, read-out: MIC (minimum inhibitory concentration)
Text: An isolate of F. columnare [isolate ALM-00-173 (genomovar II)] was obtained from Dr. Covadonga Arias (School of Fisheries, Aquaculture and Aquatic Sciences, Auburn University, Auburn, Ala.). In order to assure purity, cultures of F. columnare ALM-00-173 were maintained separately on modified Shieh (MS) agar plates (pH 7.2-7.4) (Decostere, A., et al., Laboratory Animals, 36: 396-402 (2003)). Prior to conducting the bioassay, colonies of F. columnare ALM-00-173 were used to prepare the assay culture material by culturing in 75 mL of MS broth for 24 h at 29±1° C. at 150 rpm on a rotary shaker (model C24KC; New Brunswick Scientific, Edison, N.J.). After overnight incubation, a 0.5 McFarland standard of F. columnare ALM-00-173 culture material was prepared by transferring cells from the broth culture to fresh MS broth (Schrader, K. K., and M. D. Harries, Aquaculture Research, 37: 928-937 (2006)).
(§1) The pure test compounds (−)-diplopyrone and (−)-diplopyrone acetate were dissolved in technical grade 100% methanol while (−)-diplopyrone nitrile was dissolved in technical grade 100% acetone. The three test compounds were evaluated for antibacterial activity against F. columnare ALM-00-173 and E. ictaluri S02-1039 using a rapid 96-well microplate bioassay and following previous procedures (Schrader and Harries 2006). Florfenicol was included as a positive drug control. Control wells (no test material added) were also included in each assay. Final test concentrations of compounds and florfenicol were 0.01, 0.1, 1.0, 10.0, 100.0, and 1000.0 μM. Three replications were used for each dilution of each test compound and drug control, and final results were converted to units of mg/L to allow comparison with previous studies.
(§2) The 24-h 50% inhibition concentration (IC50) and minimum inhibitory concentration (MIC) were determined using sterile 96-well (flat bottom) polystyrene microplates (Corning Costar Corp., Acton, Mass.) for (−)-diplopyrone and (−)-diplopyrone acetate. In order to prevent solvent interaction with polystyrene, sterile 96-well (flat bottom) quartz microplates (Hellma Cells, Inc., Forest Hills, N.Y.) were used for (−)-diplopyrone nitrile. Initially, dissolved test compounds or florfenicol were micropippeted separately into individual microplate wells (10 μL/well), and the solvent was allowed to completely evaporate before 0.5 MacFarland bacterial culture was added to the microplate wells (200 μL/well). Microplates were incubated at 29±1° C. (VWR model 2005 incubator; Sheldon Manufacturing, Inc., Cornelius, Oreg.). A microplate photometer (SpectraCount, Packard Instrument Company, Meriden, Conn.) was used to measure the absorbance (630 nm) of the microplate wells at time 0 and 24-h. Two replicates of each microplate bioassay were made. Cell viability of F. columnare ALM-00-173 and E. ictaluri S02-1039 was determined at the completion of the growth bioassay for each test compound using the yellow dye 3(4,5-dimethylthiazol-2-yl)-2,5-diphenyl tetrazolium bromide (MTT) and previously outlined procedures (Schrader and Harries 2006). In addition, the minimum bactericidal concentration (MBC) was determined for very active compounds (Schrader and Harries 2006).
(§3) The means and standard errors of absorbance measurements were calculated, graphed, and compared to controls to determine the MIC, 24-h IC50, and MTT 24-h IC50 for each test compound. The 24-h IC50 and MIC results for each test compound were divided by the respective 24-h IC50 and MIC results obtained for the positive control florfenicol to determine the relative-to-drug-control florfenicol (RDCF) values.

[2] = test system: Edwardsiella ictaluri S02-1039; assay: rapid 96-well microplate antibacterial bioassay against E. ictaluri; format: cell-based; details: E. ictaluri S02-1039; for MIC (minimum inhibitory concentration) / MIC: 24 h; for MIC RDCF (relative-to-drug-control florfenicol): MIC divided by MIC of florfenicol; for IC50: S021039, 24 h; for MIC: read-out: MIC (minimum inhibitory concentration)
Text: An isolate of E. ictaluri (isolate S02-1039) was obtained from a person (formerly with the College of Veterinary Medicine, Mississippi State University, Stoneville, Miss.). In order to assure purity, cultures of E. ictaluri S02-1039 were maintained on 3.8% Mueller-Hinton (MH) agar plates (pH 7.3) (Becton, Dickinson and Company, Sparks, Md.). Prior to conducting the bioassay, colonies of E. ictaluri S02-1039 were used to prepare assay culture material by aseptically transferring bacterial cells from colonies to 45 mL of 3.8% MH broth to form a bacterial cell density of 0.5 McFarland standard.
as §1, §2, §3

[3] = test system: Lemna paucicostata (L.) Hegelm. (duckweed); details: commercial herbicides; Michel et al. 2004; read-out: IC50 in the same duckweed bioassay; cited from earlier work
[4] = test system: Lemna paucicostata (L.) Hegelm. (duckweed); assay: duckweed phytotoxicity bioassay (growth by frond area); format: in vivo; details: for visual symptoms: 7 days of exposure, FIG. 7
Protocol: Pyranopyran (2), pyranopyran acetate (3), and pyranopyran nitrile (4) were also evaluated for phytotoxic activity using the aquatic plant Lemna paucicostata (L.) Hegelm. (duckweed). Dose-response curves from the aquatic plant Lemna paucicostata (L.) Hegelm. (duckweed) were obtained from experiments conducted. Duckweed was grown and treated as described by Michel et al. (Michel, A., et al., Environ. Toxicol. Chem., 23: 1074-1079 (2004)) with slight modifications. Duckweed stocks were cultivated from single L. paucicostata colonies (an aggregate of one mother and two daughter fronds to assure genetic uniformity) in Hoagland's No. 2 basal salt mixture with added iron (1000× Fe-EDTA solution, pH 5.5) in sterile trays. The plants were grown in a growth chamber under the following controlled conditions: continuous light at 26° C. and 120 μmol·s^−1·m^−2 photosynthetically active radiation. Hoagland solution was changed every two days. Bioassays were conducted in sterile […] (Falcon, Corning Life Science). Each well contained 5 mL with 1% EtOH with or without test compounds. Test compounds were dissolved in EtOH. A graphic template of the six-well plates was used for LemnaTec (LemnaTec, Würselen, Germany) image analysis software. Treatment plates, with two three-frond plants of the approximately same size per well, were incubated during 7 days of treatment. Each treatment was replicated three times. IC50 values (concentration of test compound that inhibits growth 50%) were determined with R statistics software. Effects on growth are evaluated by measuring area of the plant fronds with image analysis.

[5] = absorbance 630 nm, SE in parentheses
[6] = absorbance 630 nm, SE in parentheses, read-out: 24-h IC50 (50% inhibition concentration)
[7] = tetrazolium bromide dye MTT, read-out: MTT 24-h IC50 (cell viability)
[8] = Edwardsiella ictaluri, absorbance 630 nm, SE in parentheses, read-out: 24-h IC50 (50% inhibition concentration)
[9] = Edwardsiella ictaluri, tetrazolium bromide dye MTT, read-out: MTT 24-h IC50 (cell viability)
[10] = Edwardsiella ictaluri, S021039, SE in parentheses

Compound	MIC (minimum inhibitory concentration) ([1]; SE in parentheses)	MIC RDCF (relative-to-drug-control florfenicol) [1]	24-h IC50 (50% inhibition concentration) [1, 5]	MIC (minimum inhibitory concentration) ([2]; SE in parentheses)	MIC RDCF (relative-to-drug-control florfenicol) [2]	24-h IC50 (50% inhibition concentration) [2, 5]	IC50 [1, 6] [µg/mL]	MIC ([1]; SE in parentheses) [µg/mL]	IC50 [2, 8] [µg/mL]	MIC [2, 10] [µg/mL]	further results
C[C@@H](O)[C@@H]1C=C[C@H]2OC(=O)C=C[C@H]2O1 [Pyranopyran (2), (4aR,6S,8aR)-6-((R)-1-Hydroxyethyl)-6,8a-dihydropyrano[3,2-b]pyran-2-(4aH)-one]	196.0 (0) mg/L	544.4 (0)	76.4 (2.0) mg/L	19.6±0 mg/L and 19.6 (0) mg/L	54.4 (0)	46.1 ± 1.0 mg/L	–	–	–	–	MTT 24-h IC50 (cell viability) ([1]; tetrazolium bromide dye MTT): 78.4 (0) mg/L; MTT 24-h IC50 (cell viability) ([2]; tetrazolium bromide dye MTT): 22.1 (9.3) mg/L
CC(C)c1ccc(NC(=O)N(C)C)cc1 [isoproturon]	–	–	–	–	–	–	–	–	–	–	IC50 [3]: 350 nM
CCc1cnc(C2=NC(C)(C(C)C)C(=O)N2)c(C(=O)O)c1 (stereo not shown) [imazethapyr]	–	–	–	–	–	–	–	–	–	–	IC50 [3]: 930 nM
CC(=O)OC[C@@H]1C=C[C@H]2OC(=O)C=C[C@H]2O1 [Desmethylpyranopyran acetate (27), (2S,4aR,8aR)-6-Oxo-2,4a,6,8a-tetrahydropyrano[3,2-b]pyran-2-yl]methyl acetate]	224.0 (0) mg/L	622.2 (0)	>224.0 mg/L	22.4 (0) mg/L	62.2 (0)	39.2 (1.1) mg/L	–	–	–	–	MTT 24-h IC50 (cell viability) ([1]; tetrazolium bromide dye MTT): >224.0 mg/L; MTT 24-h IC50 (cell viability) ([2]; tetrazolium bromide dye MTT): 35.8 (4.5) mg/L
O=C1C=C[C@H]2O[C@H](CO)C=C[C@H]2O1 [Desmethylpyranopyran (28), (4aR,6S,8aR)-6-(Hydroxymethyl)-6,8a-dihydropyrano[3,2-b]pyran-2(4aH)-one]	–	505.6 (0)	–	–	50.6 (0)	–	76.4 (≈ 419 µM)	182 (≈ 999 µM)	48.2 (≈ 265 µM)	18.2 (≈ 99.9 µM)	IC50 [1, 7]: 79.2 µg/mL (≈ 435 µM); IC50 [2, 9]: 14.7 µg/mL (≈ 80.7 µM)
CS(=O)(=O)c1ccc([C@@H](O)[C@@H](CF)NC(=O)C(Cl)Cl)cc1 [Florfenicol, reference compound]	–	–	0.54 mg/L	–	–	0.14 mg/L	0.69 (≈ 1.93 µM)	0.36 (≈ 1 µM)	0.18 (≈ 0.502 µM)	0.36 (≈ 1 µM)	–
CCC(CC)Nc1c([N+](=O)[O-])cc(C)c(C)c1[N+](=O)[O-] [pendimethalin]	–	–	–	–	–	–	–	–	–	–	IC50 [3]: 380 nM
C#C[C@@H]1C=C[C@H]2OC(=O)C=C[C@H]2O1 [compound 36, (4aR,6S,8aR)-6-Ethynyl-6,8a-dihydropyrano[3,2-b]pyran-2(4aH)-one]	–	–	–	–	–	–	–	–	–	–	melting point: 153 to 154 °C
CC(=O)O[C@H](C)[C@@H]1C=C[C@H]2OC(=O)C=C[C@H]2O1 [Pyranopyran acetate (3), (4aR,6S,8aR)-6-((R)-1-Acetoxyethyl)-6,8a-dihydropyrano[3,2-b]pyran-2-(4aH)-one]	238 mg/L and 238.0 (0) mg/L	661.1 (0)	>238.0 mg/L	238.0 (0) mg/L	661.1 (0)	165.4 (1.2) mg/L	–	–	–	–	MTT 24-h IC50 (cell viability) ([1]; tetrazolium bromide dye MTT): >238.0 mg/L; MTT 24-h IC50 (cell viability) ([2]; tetrazolium bromide dye MTT): 90.4 (4.8) mg/L
N#C[C@@H]1C=C[C@H]2OC(=O)C=C[C@H]2O1 [Pyranopyran nitrile (4), (4aR,6S,8aR)-6-Cyano-6,8a-dihydropyrano-[3,2-b]pyran-2(4aH)-one]	17.7 (0) mg/L	49.2 (0)	–	0.002 (0) mg/L	0.5 (0)	–	7.5 ± 0.5 (≈ 42.3 µM)	17.7 (≈ 99.9 µM)	7.7 ± 1.2 (≈ 43.5 µM)	0.002 (≈ 0.0113 µM)	IC50 [1, 7]: 16.8 ± 0.9 µg/mL (≈ 94.8 µM); MIC RDCF (relative-to-drug-control florfenicol) ([2]; listed as pyranopyran nitrile (4)): 0.5±0; IC50 [2, 9]: 64.6 µg/mL (≈ 365 µM); MBC ([2]; Edwardsiella ictaluri, S021039, bound is the highest test concentration, read-out: minimum bactericidal concentration (MBC)): > 177 µg/mL; melting point: 162 to 164 °C; IC50 ([4]; Lemna aequinoctialis, 144 h, Lemna paucicostata growth, frond area, FIG. 6, 6 days of exposure, read-out: IC50 (concentration that inhibits growth 50%)): < 1000 nM; visual symptoms ([4]; at 33 μM and higher): some of the plants had no chlorophyll and were necrotic; visual symptoms ([4]; at 100 μM): many of the plants were devoid of chlorophyll and necrotic
NC(=O)[C@@H]1C=C[C@H]2OC(=O)C=C[C@H]2O1 [Pyranopyran amide (29), (2S,4aR,8aR)-6-Oxo-2,4a,6,8a-tetrahydropyrano[3,2-b]pyran-2-carboxamide]	–	297.9 (243.8)	–	–	54.2 (0)	–	54.6 (≈ 280 µM)	107 (≈ 550 µM)	20.5 (≈ 105 µM)	19.5 (≈ 99.9 µM)	IC50 [1, 7]: 75.1 µg/mL (≈ 385 µM); IC50 [2, 9]: 16.6 µg/mL (≈ 85.1 µM); melting point: 160 to 164 °C
